Results from US20040253266A1, “Biological compositions and methods for treatment of esophageal cancer” (priority 2003, published 2004).

Legend:
[1] = tested on: esophageal tumor SGA-73 cells; assay: TA1 mouse model of human esophageal cancer (SGA-73 cells s.c.), tumor growth; type: in vivo, TA1 mice; details: 31st day, after 30 days treatment; AY/NY 0.3 ml per day oral, CTX 30 mg/kg per day s.c.
Method: (§1) The oral composition comprising 10^8 cells per ml of activated and conditioned yeast cells of the strain Saccharomyces cerevisiae Hansen strain AS2.375 was prepared by the methods described in Section 5.1 and subsections therein.
The mice injected with tumor cells were kept for 3 days and then divided into 4 experimental groups of ten mice per group and one control group. The four experimental groups were triplicated (i.e., using a total of 120 mice in the experimental groups).
(§2) The mice received the biological compositions, untreated yeast cells, CTX or saline on the same day as the tumor cells were transplanted. The mice in group CK2 also started receiving saline on the same day as the other four groups. The biological compositions, untreated yeast cells and saline were administered orally by a feeding tube and the CTX by subcutaneous injection for 30 consecutive days.

[2] = tested on: esophageal tumor SGA-73 cells; assay: TA1 mouse model of human esophageal cancer (SGA-73 cells), survival over 6 months; type: in vivo, TA1 mice; details: for Number of live animals remaining in the groups after 30 days of treatment: 30 mice per group
Method: The survival time of mice after tumor injection and treatment was studied.
as §1
The animals were prepared in a similar manner as described in Section 8.1.
The mice injected with tumor cells were kept for 3 days and then divided into 4 experimental groups of ten mice per group and one control group. The four experimental groups were triplicated (i.e., using a total of 120 mice in the experimental groups). In group 2AY, the mice received 0.5 ml of the biological composition once per day. In group 2NY, the mice received 0.5 ml of the untreated yeast cells once per day. In group 2CTX, the mice were injected subcutaneously with 45 mg of cyclophosphamide (CTX) per kg body weight per day. In group 2CK1, the mice received 0.5 ml of physiological saline once per day.
as §2, with “2CK2” for “CK2”, “days. The mice were observed over 6 months from the day of tumor inoculation and survival was recorded. The weight of the mice and the weight of the tumor were determined by standard techniques.” for “days.”

esophageal cancer [3] = assay: Wistar rat model of human esophageal cancer (MBNA-induced), tumor growth; type: in vivo, Wistar rats; details: 31st day, after 30 days treatment; AY/NY 1.5 ml per day oral, VDS 3.0 mg/kg i.v. once a week
Method: as §1
The four experimental groups were triplicated (i.e., using a total of 120 rats in the experimental groups).

esophageal cancer [4] = assay: Wistar rat model of esophageal cancer, survival over 6 months; type: in vivo, Wistar rats; details: for Number of live animals remaining in the groups after 30 days of treatment: 30 rats per group
Method: The following example illustrates the benefit of a biological composition of the invention in a Wistar rat model of original position engrafted human esophageal cancer. The survival time of rats after tumor injection and treatment was studied.
as §1
The animals were prepared in a similar manner as described in Section 6.1.
The rats that were fed with MBNA for 30 days were divided into 4 experimental groups of ten rats per group and one control group. The four experimental groups were triplicated (i.e., using a total of 120 rats in the experimental groups). In group 2AY, the rats received 1.5 ml of the biological composition in two doses per day. In group 2NY, the rats received 1.5 ml of the untreated yeast cells in two doses per day. […] In group 2CK1, the rats received 1.5 ml of physiological saline in two doses per day.
The rats received the biological compositions, untreated yeast cells, VDS or saline on the same day as the tumor cells were transplanted. The rats in group 2CK2 also started receiving saline on the same day as the other four groups. […] The rats were observed over 6 months from the day of tumor inoculation and survival was recorded. The weight of the rats, the weight of the esophagus, and the weight of the tumor were determined by standard techniques.

[5] = 0 month after cessation of treatment
[6] = 1 month after cessation of treatment
[7] = 2 months after cessation of treatment
[8] = 3 months after cessation of treatment
[9] = 4 months after cessation of treatment
[10] = 5 months after cessation of treatment
[11] = 6 months after cessation of treatment
[12] = mice that survived the 6 month observation
[13] = rats that survived the 6 month observation

## O=P1(N(CCCl)CCCl)NCCCO1 (stereo not shown) [CTX, cyclophosphamide]
[1]
  mean weight of mice and standard deviation: 18.2 ± 2.8 g
  mean weight of tumor nodules and standard deviation: 384 ± 31 mg
[2]; [5]
  Number of live animals remaining in the groups after 30 days of treatment: 30
[2]; [6]
  Number of live animals remaining in the groups after 30 days of treatment: 30
[2]; 2AY/2NY 0.5 ml per day oral, 2CTX 45 mg/kg per day s.c.
  survival time of mice: all died after four months
[2]; [7]
  Number of live animals remaining in the groups after 30 days of treatment: 28
[2]; [8]
  Number of live animals remaining in the groups after 30 days of treatment: 22
[2]; [9]
  Number of live animals remaining in the groups after 30 days of treatment: 18
[2]; [10]
  Number of live animals remaining in the groups after 30 days of treatment: 0
[2]; [11]
  Number of live animals remaining in the groups after 30 days of treatment: 0
[2]; [12]
  mean weight of mice and standard deviation: all animals dead
  mean weight of tumor nodules and standard deviation: all animals dead

## CC[C@]1(O)C[C@@H]2CN(CCc3c([nH]c4ccccc34)[C@@](C(=O)OC)(c3cc4c(cc3OC)N(C)[C@H]3[C@@](O)(C(N)=O)[C@H](O)[C@]5(CC)C=CCN6CC[C@]43[C@@H]65)C2)C1 [VDS, vindesine]
Esophageal cancer [3]
  mean weight of rats and standard deviation: 173 ± 15 g
  mean weight of tumor nodules and standard deviation: 281 ± 31 mg
Esophageal cancer [4]; [5]
  Number of live animals remaining in the groups after 30 days of treatment: 30
Esophageal cancer [4]; [6]
  Number of live animals remaining in the groups after 30 days of treatment: 30
Esophageal cancer [4]; 2AY/2NY 1.5 ml per day oral, 2VDS 3.0 mg/kg per week for four weeks
  survival time of rats: all died after five months
Esophageal cancer [4]; [7]
  Number of live animals remaining in the groups after 30 days of treatment: 30
Esophageal cancer [4]; [8]
  Number of live animals remaining in the groups after 30 days of treatment: 30
Esophageal cancer [4]; [9]
  Number of live animals remaining in the groups after 30 days of treatment: 21
Esophageal cancer [4]; [10]
  Number of live animals remaining in the groups after 30 days of treatment: 3
Esophageal cancer [4]; [11]
  Number of live animals remaining in the groups after 30 days of treatment: 0
Esophageal cancer [4]; [13]
  mean weight of esophagus and standard deviation: all animals dead
  mean weight of rats and standard deviation: all animals dead
  mean weight of tumor nodules and standard deviation: all animals dead
